Measured values from patent US9125913B2, “Bcl-2-selective apoptosis-inducing agents for the treatment of cancer and immune diseases” (AbbVie Inc., priority 2008, dated 2015).

What follows are compounds tested on GST-Bcl-2 (assay: TR-FRET binding assay, Bcl-2). Conditions: TR-FRET Ki values.
How it was run: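 Ki values come from Wang's competitive-binding equation applied to TR-FRET signal (excitation 340/35 nm; emission 520/525 nm F-Bak peptide, 495/510 nm Tb antibody). Protein, probe and antibody incubated with compound 3 h at room temperature; dilution series began at 50 μM as 2× stock in 10% DMSO.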

First: CC1(C)CCC(CN2CCN(c3ccc(C(=O)NS(=O)(=O)c4ccc(NCC5CN(S(C)(=O)=O)CCO5)c([N+](=O)[O-])c4)c(Oc4cccc5[nH]cnc45)c3)CC2)=C(c2ccc(Cl)cc2)C1 (stereo not drawn) [EXAMPLE 458, 2-(1H-benzimidazol-4-yloxy)-4-(4-{[2-(4-chlorophenyl)-4,4-dimethylcyclohex-1-en-1-yl]methyl}piperazin-1-yl)-N-{[4-({[4-(methylsulfonyl)morpholin-2-yl]methyl}amino)-3-nitrophenyl]sulfonyl}benzamide]
Second: CC1(C)CCC(CN2CCN(c3ccc(C(=O)NS(=O)(=O)c4ccc(NCCCN5CCOCC5)c([N+](=O)[O-])c4)c(Oc4ccc5[nH]ncc5c4)c3)CC2)=C(c2ccc(Cl)cc2)C1 [Example 20, 4-(4-{[2-(4-chlorophenyl)-4,4-dimethylcyclohex-1-en-1-yl]methyl}piperazin-1-yl)-2-(1H-indazol-5-yloxy)-N-({4-[(3-morpholin-4-ylpropyl)amino]-3-nitrophenyl}sulfonyl)benzamide]
The “Binding selectivity ratio (Bcl-XL Ki/Bcl-2 Ki)” value (from here on “Binding selectivity ratio”) of the first is higher: 237.24 for the first, 32.8 for the second.

First: CC1(C)CCC(CN2CCN(c3ccc(C(=O)NS(=O)(=O)c4cnc(OCC5(F)CCN(C(CF)CF)CC5)c(C(F)(F)F)c4)c(Oc4cccc5[nH]ncc45)c3)CC2)=C(c2ccc(Cl)cc2)C1 [EXAMPLE 459, 4-(4-{[2-(4-chlorophenyl)-4,4-dimethylcyclohex-1-en-1-yl]methyl}piperazin-1-yl)-N-{[6-({4-fluoro-1-[2-fluoro-1-(fluoromethyl)ethyl]piperidin-4-yl}methoxy)-5-(trifluoromethyl)pyridin-3-yl]sulfonyl}-2-(1H-indazol-4-yloxy)benzamide]
Second: CC1(C)CCC(CN2CCN(c3ccc(C(=O)NS(=O)(=O)c4ccc(OCC5(F)CCOCC5)c(Cl)c4)c(Oc4cccc5[nH]ncc45)c3)CC2)=C(c2ccc(Cl)cc2)C1 [EXAMPLE 464, N-({3-chloro-4-[(4-fluorotetrahydro-2H-pyran-4-yl)methoxy]phenyl}sulfonyl)-4-(4-{[2-(4-chlorophenyl)-4,4-dimethylcyclohex-1-en-1-yl]methyl}piperazin-1-yl)-2-(1H-indazol-4-yloxy)benzamide]
The “Binding selectivity ratio” value of the first is lower: 541.58 for the first, 6432 for the second.

Compared with CC1(C)CCC(CN2CCN(c3ccc(C(=O)NS(=O)(=O)c4cnc(OCCC5CCCO5)c(Cl)c4)c(Oc4cccc5[nH]ncc45)c3)CC2)=C(c2ccc(Cl)cc2)C1 (stereo not drawn) [EXAMPLE 461, 4-(4-{[2-(4-chlorophenyl)-4,4-dimethylcyclohex-1-en-1-yl]methyl}piperazin-1-yl)-N-{[5-chloro-6-(2-tetrahydrofuran-2-ylethoxy)pyridin-3-yl]sulfonyl}-2-(1H-indazol-4-yloxy)benzamide], CC1(C)CC(c2ccc(Cl)cc2)=C(CN2CCN(c3ccc(C(=O)NS(=O)(=O)c4cnc(OCC5(F)CCOCC5)c(Cl)c4)c(Oc4cccc5[nH]ncc45)c3)CC2)CO1 [EXAMPLE 465, N-({5-chloro-6-[(4-fluorotetrahydro-2H-pyran-4-yl)methoxy]pyridin-3-yl}sulfonyl)-4-(4-{[4-(4-chlorophenyl)-6,6-dimethyl-5,6-dihydro-2H-pyran-3-yl]methyl}piperazin-1-yl)-2-(1H-indazol-4-yloxy)benzamide] is higher in “Binding selectivity ratio” value: 39.44 for the first, 1472 for the second.

Compared with CC1(C)CCC(CN2CCN(c3ccc(C(=O)NS(=O)(=O)c4cnc(OCC5CCC(F)(F)CC5)c(Cl)c4)c(Oc4cccc5[nH]cnc45)c3)CC2)=C(c2ccc(Cl)cc2)C1 [EXAMPLE 463, 2-(1H-benzimidazol-4-yloxy)-N-({5-chloro-6-[(4,4-difluorocyclohexyl)methoxy]pyridin-3-yl}sulfonyl)-4-(4-{[2-(4-chlorophenyl)-4,4-dimethylcyclohex-1-en-1-yl]methyl}piperazin-1-yl)benzamide], CC1(C)CCC(c2ccc(Cl)cc2)=C(CN2CCN(c3ccc(C(=O)NS(=O)(=O)c4ccc(NCCCN5CCOCC5)c([N+](=O)[O-])c4)c(Oc4ccccc4)c3)CC2)C1 [Example 19, 4-(4-{[2-(4-chlorophenyl)-5,5-dimethylcyclohex-1-en-1-yl]methyl}piperazin-1-yl)-N-({4-[(3-morpholin-4-ylpropyl)amino]-3-nitrophenyl}sulfonyl)-2-phenoxybenzamide] is lower in “Binding selectivity ratio” value: 6043 for the first, 23.6 for the second.

Going from O=C(NS(=O)(=O)c1ccc(NCC2CCOCC2)c([N+](=O)[O-])c1)c1ccc(N2CCN(Cc3ccccc3-c3ccc(Cl)cc3)CC2)cc1Oc1ccccc1 [Example 1, 4-{4-[(4′-chloro-1,1′-biphenyl-2-yl)methyl]piperazin-1-yl}-N-({3-nitro-4-[(tetrahydro-2H-pyran-4-ylmethyl)amino]phenyl}sulfonyl)-2-phenoxybenzamide] to O=C(NS(=O)(=O)c1ccc(NCC2CCOCC2)c([N+](=O)[O-])c1)c1ccc(N2CCN(Cc3ccccc3-c3ccc(Cl)cc3)CC2)cc1Oc1cccc2ccccc12 [Example 34, 4-{4-[(4′-chloro-1,1′-biphenyl-2-yl)methyl]piperazin-1-yl}-2-(1-naphthyloxy)-N-({3-nitro-4-[(tetrahydro-2H-pyran-4-ylmethyl)amino]phenyl}sulfonyl)benzamide], the “Binding selectivity ratio” value falls from 85.4 to 44.3.

Going from CCN1CCCC1CNC(=O)c1cc(S(=O)(=O)NC(=O)c2ccc(N3CCN(Cc4ccccc4-c4ccc(Cl)cc4)CC3)cc2Oc2ccccc2)ccc1OC (stereo not drawn) [Example 33, 4-{4-[(4′-chloro-1,1′-biphenyl-2-yl)methyl]piperazin-1-yl}-N-{[3-({[(1-ethylpyrrolidin-2-yl)methyl]amino}carbonyl)-4-methoxyphenyl]sulfonyl}-2-phenoxybenzamide] to O=C(NS(=O)(=O)c1ccc(NCC2CCOCC2)c(S(=O)(=O)C(F)(F)F)c1)c1ccc(N2CCN(Cc3ccccc3-c3ccc(Cl)cc3)CC2)cc1Oc1ccc2ccccc2c1 [Example 37, 4-{4-[(4′-chloro-1,1′-biphenyl-2-yl)methyl]piperazin-1-yl}-2-(2-naphthyloxy)-N-({4-[(tetrahydro-2H-pyran-4-ylmethyl)amino]-3-[(trifluoromethyl)sulfonyl]phenyl}sulfonyl)benzamide], the “Binding selectivity ratio” value rises from 49.9 to 95.7.

Compared with O=C(NS(=O)(=O)c1ccc(NCCCN2CCOCC2)c([N+](=O)[O-])c1)c1ccc(N2CCN(Cc3ccccc3-c3ccc(Cl)cc3)CC2)cc1Oc1ccc2ccccc2c1 [Example 36, 4-{4-[(4′-chloro-1,1′-biphenyl-2-yl)methyl]piperazin-1-yl}-N-({4-[(3-morpholin-4-ylpropyl)amino]-3-nitrophenyl}sulfonyl)-2-(2-naphthyloxy)benzamide], CN(C)CCCNc1ccc(S(=O)(=O)NC(=O)c2ccc(N3CCN(Cc4ccccc4-c4ccc(Cl)cc4)CC3)cc2Oc2ccc3cc[nH]c3c2)cc1[N+](=O)[O-] [Example 47, 4-{4-[(4′-chloro-1,1′-biphenyl-2-yl)methyl]piperazin-1-yl}-N-[(4-{[3-(dimethylamino)propyl]amino}-3-nitrophenyl)sulfonyl]-2-(1H-indol-6-yloxy)benzamide] is higher in “Binding selectivity ratio” value: 11.3 for the first, 15.7 for the second.

First: CN(C)CCCNc1ccc(S(=O)(=O)NC(=O)c2ccc(N3CCN(Cc4ccccc4-c4ccc(Cl)cc4)CC3)cc2Oc2cccc3cnccc23)cc1[N+](=O)[O-] [Example 42, 4-{4-[(4′-chloro-1,1′-biphenyl-2-yl)methyl]piperazin-1-yl}-N-[(4-{[3-(dimethylamino)propyl]amino}-3-nitrophenyl)sulfonyl]-2-(isoquinolin-5-yloxy)benzamide]
Second: CC1(C)CCC(c2ccc(Cl)cc2)=C(CN2CCN(c3ccc(C(=O)NS(=O)(=O)c4ccc(NCCCN5CCOCC5)c([N+](=O)[O-])c4)c(Oc4ccc5[nH]ccc5c4)c3)CC2)C1 [Example 50, 4-(4-{[2-(4-chlorophenyl)-5,5-dimethylcyclohex-1-en-1-yl]methyl}piperazin-1-yl)-2-(1H-indol-5-yloxy)-N-({4-[(3-morpholin-4-ylpropyl)amino]-3-nitrophenyl}sulfonyl)benzamide]
The “Binding selectivity ratio” value of the first is lower: 80 for the first, 191.2 for the second.

For O=C(NS(=O)(=O)c1ccc(N2C(=O)C3CCC3C2=O)cc1)c1ccc(N2CCN(Cc3ccccc3-c3ccc(Cl)cc3)CC2)cc1Oc1ccccc1 (stereo not drawn) [Example 28, 4-{4-[(4′-chloro-1,1′-biphenyl-2-yl)methyl]piperazin-1-yl}-N-{[4-(2,4-dioxo-3-azabicyclo[3.2.0]hept-3-yl)phenyl]sulfonyl}-2-phenoxybenzamide], the “Binding selectivity ratio” value was >19.6.
CC1CC(=O)NN=C1c1ccc(S(=O)(=O)NC(=O)c2ccc(N3CCN(Cc4ccccc4-c4ccc(Cl)cc4)CC3)cc2Oc2ccccc2)cc1 (stereo not drawn) [Example 29, 4-{4-[(4′-chloro-1,1′-biphenyl-2-yl)methyl]piperazin-1-yl}-N-{[4-(4-methyl-6-oxo-1,4,5,6-tetrahydropyridazin-3-yl)phenyl]sulfonyl}-2-phenoxybenzamide] was tested, and the “Binding selectivity ratio” value was >55.4.
CC1(C)CN(c2ccc(S(=O)(=O)NC(=O)c3ccc(N4CCN(Cc5ccccc5-c5ccc(Cl)cc5)CC4)cc3Oc3ccccc3)cc2)C1=O [Example 30, 4-{4-[(4′-chloro-1,1′-biphenyl-2-yl)methyl]piperazin-1-yl}-N-{[4-(3,3-dimethyl-2-oxoazetidin-1-yl)phenyl]sulfonyl}-2-phenoxybenzamide] was tested, and the “Binding selectivity ratio” value was >6.4.
With O=C(NS(=O)(=O)c1ccc(-n2ncc([N+](=O)[O-])n2)cc1)c1ccc(N2CCN(Cc3ccccc3-c3ccc(Cl)cc3)CC2)cc1Oc1ccccc1 [Example 31, 4-{4-[(4′-chloro-1,1′-biphenyl-2-yl)methyl]piperazin-1-yl}-N-{[4-(4-nitro-2H-1,2,3-triazol-2-yl)phenyl]sulfonyl}-2-phenoxybenzamide] the “Binding selectivity ratio” value was >18.0.
O=C(NS(=O)(=O)c1ccccc1OCCN1CCCCC1)c1ccc(N2CCN(Cc3ccccc3-c3ccc(Cl)cc3)CC2)cc1Oc1ccccc1 [Example 32, 4-{4-[(4′-chloro-1,1′-biphenyl-2-yl)methyl]piperazin-1-yl}-2-phenoxy-N-{[2-(2-piperidin-1-ylethoxy)phenyl]sulfonyl}benzamide] was tested, and the “Binding selectivity ratio” value was >10.8.
